From paper PMC10609883, “Design, Synthesis and Biological Evaluation of Novel N-Arylpiperazines Containing a 4,5-Dihydrothiazole Ring” (Pharmaceuticals, 2023)
Where “and” joins values, the source holds several entries; their conditions need not be identical. Identical values can stand only once.

What was measured:
DU-145 = assay: Cytotoxic activity, sulforhodamine B assay, DU-145; type: cell-based; details: Homo sapiens, DU-145 prostate cancer cells, 72 h
Description: (§1) Media, serum and antibiotics for cell culture were from Lonza (Basel, Switzerland). MCF7 (ER+, PR+, HER2−), SKBR3 (ER−, […], HER2+) and MDA-MB231 (ER−, PR−, HER2−) human breast cancer cells; MCF10A non-cancer breast epithelial cells; LNCAP (androgen sensitive), DU145 and PC3 (androgen independent) human prostate cancer cells; and PNT1 non-cancer prostate epithelial cells were available in our laboratory. MCF7, SKBR3 and MDA-MB231 cells were cultured in DMEM, supplemented with 10% FBS, 2 mM glutamine, 100 units/mL penicillin and 100 units/mL streptomycin. MCF10A cells were cultured in MEBM and supplemented with 0.4% BPE, 0.1% hEGF, 0.1%, Insulin, 0.1% Hydrocortisone and 0.1% GA-1000. LNCAP and DU145 cells were cultured in RPMI and supplemented with 10% FBS, 2 mM glutamine, 100 units/mL penicillin and 100 units/mL streptomycin. PC3 and PNT1 cells were cultured in DMEM-F12 (1:1), supplemented with 10% FBS, 2 mM glutamine, 100 units/mL penicillin and 100 units/mL streptomycin. Cultures were maintained in a humidified atmosphere of 95% air and 5% CO2 at 37 °C. Treatment with compounds were carried out in culture conditions. For cell survival assay, cells were fixed with 50% trichloroacetic acid for at least 2 h at 4 °C, washed with distilled and de-ionized water, air-dried and stained for 30 min with 0.4% sulforhodamine B in 1% acetic acid. Unbound dye was removed, and 10 mM tris-HCl solution (pH 7.5) was added to dissolve the protein-bound dye. Cell survival was assessed by optical density determination at 510 nm using a microplate reader.
(§2) Figure 1 Effect of novel thiazolinylphenyl-piperazines (2a–c) on PCa cell viability. LNCAP, DU145 and PC3 cells were treated with rising concentrations (5 μM, 10 μM, 25 μM, 50 μM, 100 μM) of 2a–c. After 72 h, cell viability was assessed by sulforhodamine B assay. The results were reported as percentage of viable cells compared to positive control (untreated cells that were considered to represent the maximum viability of 100%). […]

MCF-7 = assay: Cytotoxic activity, sulforhodamine B assay, MCF-7; type: cell-based; details: Homo sapiens, MCF7, MCF-7 breast cancer cells, 72 h
Description: as §1
as §2, with “Figure 2” for “Figure 1”, “on BCa” for “on PCa”, “viability. MCF7, SKBR3” for “viability. LNCAP, DU145”, “and MDA” for “and PC3”

5-HT1A receptor = molecular target: T1, 5-HT1A receptor (Rattus norvegicus, UniProt P19327); assay: Competitive 5-HT1A binding assay, [3H]8-OH-DPAT, hippocampal membranes; parameters: species or system Sprague Dawley rats; details: 5-HT1A receptor binding affinity; 1 nM [3H]8-OH-DPAT, hippocampal membrane; Cheng–Prusoff; read-out: Ki (µM, 95% CI)
T1 construct: supplemented with 0.1% ascorbate, 5 mM MgCl2 and 80 µg of hippocampal membrane suspension; from tissue; host or cells: rat hippocampus membranes (Sprague Dawley)
T1 sequence (P19327 1-422): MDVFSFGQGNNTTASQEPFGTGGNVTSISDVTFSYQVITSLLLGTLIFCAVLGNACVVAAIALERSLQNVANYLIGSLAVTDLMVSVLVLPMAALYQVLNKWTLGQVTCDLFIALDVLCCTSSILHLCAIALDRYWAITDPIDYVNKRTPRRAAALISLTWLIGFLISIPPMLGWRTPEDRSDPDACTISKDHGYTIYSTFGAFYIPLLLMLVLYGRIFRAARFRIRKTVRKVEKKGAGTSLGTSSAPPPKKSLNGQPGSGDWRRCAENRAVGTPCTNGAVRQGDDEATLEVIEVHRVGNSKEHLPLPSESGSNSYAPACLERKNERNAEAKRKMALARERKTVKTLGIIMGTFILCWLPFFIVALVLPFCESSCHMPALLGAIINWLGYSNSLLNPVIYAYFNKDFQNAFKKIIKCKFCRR
Description: Brains were rapidly removed and placed on ice. Hippocampi (for 5-HT1A assays) and frontal cortices (for 5-HT2A assays) were dissected on a Petri dish. […] The homogenate was centrifuged at 48,000× g at 4 °C for 15 min. […] The centrifugation and suspension steps were repeated twice.
Non-specific binding was determined with 10 μM serotonin. The final DMSO concentration in the assay was 5%. […] Each well was washed with 2 mL of 50 mM Tris-HCl (pH 7.4) buffer to separate bound ligands from free ones. Plates were left to dry overnight. […] Binding curves were fitted with one site non-linear regression.

SKBR-3 = assay: Cytotoxic activity, sulforhodamine B assay, SKBR-3; type: cell-based; details: Homo sapiens, SK-BR-3, SKBR-3 breast cancer cells, 72 h
Description: as §1
as §2, with “Figure 2” for “Figure 1”, “on BCa” for “on PCa”, “viability. MCF7, SKBR3” for “viability. LNCAP, DU145”, “and MDA” for “and PC3”

MDA-MB231 = assay: Cytotoxic activity, sulforhodamine B assay, MDA-MB231; type: cell-based; details: Homo sapiens, MDA-MB-231, MDA-MB231 breast cancer cells, 72 h
Description: as §1
(§3) Figure 2 Effect of novel thiazolinylphenyl-piperazines (2a–c) on BCa cell viability. MCF7, SKBR3 and MDA cells were treated with rising concentrations (5 μM, 10 μM, 25 μM, 50 μM, 100 μM) of 2a–c. After 72 h, cell viability was assessed by sulforhodamine B assay. The results were reported as percentage of viable cells compared to positive control (untreated cells that were considered to represent the maximum viability of 100%). Data represent the mean ± SD of at least three independent triplicate experiments. * denotes statistically significant values compared with positive control (* adjp < 0.05, ** adjp < 0.01, *** adjp < 0.001).
as §3, with “Figure 3” for “Figure 2”, “thiazolinylphenyl-piperazines (3a–c)” for “thiazolinylphenyl-piperazines (2a–c)”, “on PC3 and MDA” for “on BCa”, “viability. Cells” for “viability. MCF7, SKBR3 and MDA cells”, “of 3a-c.” for “of 2a–c.”, “< 0.001, **** adjp < 0.0001).” for “< 0.001).”

LNCAP = assay: Cytotoxic activity, sulforhodamine B assay, LNCAP; type: cell-based, human; details: 72 h, LNCAP prostate cancer cells
Description: as §1
as §3, with “Figure 1” for “Figure 2”, “on PCa” for “on BCa”, “viability. LNCAP, DU145” for “viability. MCF7, SKBR3”, “and PC3” for “and MDA”, “< 0.01).” for “< 0.01, *** adjp < 0.001).”

PC-3 = assay: Cytotoxic activity, sulforhodamine B assay, PC-3; type: cell-based; details: Homo sapiens, PC-3 prostate cancer cells, 72 h
Description: as §1
Figure 1 Effect of novel thiazolinylphenyl-piperazines (2a–c) on PCa cell viability. LNCAP, DU145 and PC3 cells were treated with rising concentrations (5 μM, 10 μM, 25 μM, 50 μM, 100 μM) of 2a–c. After 72 h, cell viability was assessed by sulforhodamine B assay. […]
Figure 3 Effect of novel thiazolinylphenyl-piperazines (3a–c) on PC3 and MDA cell viability. […] After 72 h, cell viability was assessed by sulforhodamine B assay. […]

Row | melting point | SMILES | IC50 (DU-145) | IC50 (MCF-7) | Ki (5-HT1A receptor) | IC50 (SKBR-3) | IC50 (MDA-MB231) | IC50 (LNCAP; Homo sapiens, LNCaP) | IC50 (PC-3) | IC50 (LNCAP)
1 | – | c1cc(C2=NCCS2)cc(N2CCNCC2)c1 [2b, 2-(3-(Piperazin-1-yl)phenyl)-4,5-dihydrothiazole] | 66.6 ± 9.4 µM | 15.9 ± 1.8 µM | 0.412 µM | 27.6 ± 5.6 µM | 40 ± 9.8 µM | 48.5 ± 7.3 µM | – | –
2 | – | CC(=O)N1CCN(c2cccc(C3=NCCS3)c2)CC1 [3b, 1-(4-(3-(4,5-Dihydrothiazol-2-yl)phenyl)piperazin-1-yl)ethan-1-one] | – | – | – | – | 34.6 ± 5.4 µM | – | 65 ± 7.4 µM | –
3 | 90 to 92 °C | CC(=O)N1CCN(c2ccccc2C2=NCCS2)CC1 [3a, 1-(4-(2-(4,5-Dihydrothiazol-2-yl)phenyl)piperazin-1-yl)ethan-1-one] | – | – | – | – | 23.3 ± 3.4 µM | – | 73.3 ± 10.3 µM | –
4 | – | c1ccc(N2CCNCC2)c(C2=NCCS2)c1 [2a, 2-(2-(Piperazin-1-yl)phenyl)-4,5-dihydrothiazole] | 66.6 ± 7.3 µM | 14.7 ± 1.9 µM | 2.29 µM and 2.3 µM | 28.2 ± 4.1 µM | 31.4 ± 5.1 µM | 67.2 ± 13.1 µM | – | –
5 | – | c1cc(N2CCNCC2)ccc1C1=NCCS1 [2c, 2-(4-(Piperazin-1-yl)phenyl)-4,5-dihydrothiazole] | 47.7 ± 11.7 µM | 19.5 ± 2.3 µM | 49.5 µM | 27.7 ± 4.8 µM | 36.3 ± 7.7 µM | 32 µM | – | 31.9 ± 9.2 µM
6 | – | CC(=O)N1CCN(c2ccc(C3=NCCS3)cc2)CC1 [3c, 1-(4-(4-(4,5-Dihydrothiazol-2-yl)phenyl)piperazin-1-yl)ethan-1-one] | – | – | – | – | 47.1 ± 6.7 µM | – | 32.1 ± 10.2 µM | –
